# Measurements as given in patent US10472356B2, “Bicyclic ketone sulfonamide compounds” (AMGEN INC., priority 2015, dated 2019).
# Experiments:
# Type in all cases: cell-based
# [1] = molecular target: T1, human Nav1.7 (Homo sapiens, UniProt Q15858); assay: Nav 1.7 In Vitro PatchXpress (PX) Assay; details: HEK 293 cells stably transfected with human Nav1.7; PatchXpress whole cell voltage clamp; partially inactivated state (holding potential yielding 20 to 50% inactivation); read-out: hNav1.7 PX IC50
# T1 construct: expressed in transfected cells; host or cells: HEK293
# T1 sequence (Q15858 whole entry): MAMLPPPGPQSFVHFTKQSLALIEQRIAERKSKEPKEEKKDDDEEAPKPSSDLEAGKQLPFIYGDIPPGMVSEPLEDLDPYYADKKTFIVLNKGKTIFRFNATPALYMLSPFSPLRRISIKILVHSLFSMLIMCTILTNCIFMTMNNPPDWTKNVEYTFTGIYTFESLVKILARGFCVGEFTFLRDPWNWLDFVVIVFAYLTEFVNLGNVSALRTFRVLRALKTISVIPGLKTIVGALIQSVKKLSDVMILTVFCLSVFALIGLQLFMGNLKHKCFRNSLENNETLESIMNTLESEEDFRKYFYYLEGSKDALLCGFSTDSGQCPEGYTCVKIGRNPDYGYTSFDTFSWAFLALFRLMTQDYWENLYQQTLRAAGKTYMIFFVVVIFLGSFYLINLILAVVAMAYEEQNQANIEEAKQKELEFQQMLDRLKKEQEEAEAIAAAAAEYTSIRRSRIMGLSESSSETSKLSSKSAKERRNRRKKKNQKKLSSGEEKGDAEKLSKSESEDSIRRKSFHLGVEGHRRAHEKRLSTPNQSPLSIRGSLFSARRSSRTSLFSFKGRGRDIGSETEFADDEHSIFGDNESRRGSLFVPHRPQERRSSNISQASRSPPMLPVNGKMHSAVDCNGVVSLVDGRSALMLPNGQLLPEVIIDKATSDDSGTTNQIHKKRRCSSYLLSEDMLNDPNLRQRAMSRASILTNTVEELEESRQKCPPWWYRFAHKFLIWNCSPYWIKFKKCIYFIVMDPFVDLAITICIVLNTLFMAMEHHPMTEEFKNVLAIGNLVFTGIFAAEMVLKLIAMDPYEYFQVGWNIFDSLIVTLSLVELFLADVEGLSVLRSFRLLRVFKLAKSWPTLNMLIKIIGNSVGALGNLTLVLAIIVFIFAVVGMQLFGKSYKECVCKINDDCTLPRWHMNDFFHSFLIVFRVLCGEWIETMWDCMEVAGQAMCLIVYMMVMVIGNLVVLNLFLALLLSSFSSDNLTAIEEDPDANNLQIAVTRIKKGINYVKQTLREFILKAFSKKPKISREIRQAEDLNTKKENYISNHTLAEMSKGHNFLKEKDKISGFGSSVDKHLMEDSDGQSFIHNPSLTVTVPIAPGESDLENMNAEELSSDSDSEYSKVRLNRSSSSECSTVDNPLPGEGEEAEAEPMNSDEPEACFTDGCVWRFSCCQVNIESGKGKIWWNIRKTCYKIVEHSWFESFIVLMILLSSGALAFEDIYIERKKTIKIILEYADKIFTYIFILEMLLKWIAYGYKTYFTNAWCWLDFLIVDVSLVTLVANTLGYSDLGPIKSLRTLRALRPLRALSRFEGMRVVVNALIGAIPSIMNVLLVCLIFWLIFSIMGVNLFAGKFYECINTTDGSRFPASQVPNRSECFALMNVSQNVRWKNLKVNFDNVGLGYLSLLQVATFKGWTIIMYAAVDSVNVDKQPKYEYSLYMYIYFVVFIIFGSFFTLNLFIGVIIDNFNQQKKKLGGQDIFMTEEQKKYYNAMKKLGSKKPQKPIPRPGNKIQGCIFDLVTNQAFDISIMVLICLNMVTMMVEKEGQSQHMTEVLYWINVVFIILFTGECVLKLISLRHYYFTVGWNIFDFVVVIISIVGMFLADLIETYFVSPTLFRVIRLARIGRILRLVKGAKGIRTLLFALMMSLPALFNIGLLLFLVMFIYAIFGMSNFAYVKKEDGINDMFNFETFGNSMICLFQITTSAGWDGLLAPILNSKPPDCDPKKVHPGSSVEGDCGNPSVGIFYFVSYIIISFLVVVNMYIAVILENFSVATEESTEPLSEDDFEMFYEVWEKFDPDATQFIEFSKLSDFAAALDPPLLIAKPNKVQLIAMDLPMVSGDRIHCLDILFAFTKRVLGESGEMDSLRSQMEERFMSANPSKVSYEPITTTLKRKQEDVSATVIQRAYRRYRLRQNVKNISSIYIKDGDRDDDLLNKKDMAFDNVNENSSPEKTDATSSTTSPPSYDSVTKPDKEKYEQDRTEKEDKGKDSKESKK
# How it was run: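 Whole-cell voltage clamp on HEK 293 cells stably expressing human Nav1.7 (automated patch), holding potential giving 20–50% inactivation; 20 ms pulses to −10 mV at 0.1 Hz. Single compound concentration applied 3 min, peak current inhibition measured; IC50 fitted from 3–5 cells per concentration.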
# [2] = molecular target: T1, human Nav1.7; assay: Nav 1.7 IWQ In Vitro Assay (IonWorks Quattro); details: HEK293 cells stably transfected with human Nav 1.7; IonWorks Quattro population patch-clamp; 26th pulse to −20 mV, 5 Hz; cells unclamped 5 to 8 minutes with compound; read-out: hNav1.7 IWQ IC50
# How it was run: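 Population patch clamp on HEK293 cells stably expressing human Nav 1.7: held at −110 mV for three seconds, then 26 pulses of 150 msec to −20 mV at 5 Hz, before and after 5-8 min with one compound concentration. Percent inhibition from peak current at the 26th pulse.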
# [3] = molecular target: T1, human Nav1.7; assay: Nav 1.7 IWB In Vitro Assay (IonWorks Barracuda); details: HEK293 cells stably transfected with human Nav 1.7; IonWorks Barracuda population patch-clamp; cells clamped to −20 mV for 4 minutes with compound; 26th pulse; read-out: hNav1.7 IWB IC50
# How it was run: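 Population patch clamp of HEK293 cells stably expressing human Nav 1.7: 26 pulses to −20 mV (150 ms, 5 Hz) from −110 mV, then 4 min at −20 mV with compound, 3 s recovery at −110 mV and the train repeated. % inhibition of 26th-pulse peak current vs no compound; IC50 from concentration-response curves.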
IC50 [1],IC50 [2],IC50 [3],SMILES
21.3 nM,14.7 nM,12.6 nM,"COc1cc(-c2ccc(Cl)c(C)c2)c(F)cc1-n1c2c(ccc1=O)CN(S(=O)(=O)Nc1cccnn1)CC2 (single isomer, unassigned) [Example 33-P, P-1-(4′-chloro-2-fluoro-5-methoxy-3′-methyl-4-biphenylyl)-2-oxo-N-3-pyridazinyl-1,5,7,8-tetrahydro-1,6-naphthyridine-6(2H)-sulfonamide]"
16.9 nM,3.4 nM,3.5 nM,"COc1cc(-c2cccc(C(F)(F)F)c2)c(Cl)cc1-n1c2c(ccc1=O)CN(S(=O)(=O)Nc1cccnn1)CC2 (single isomer, unassigned) [Example 91-P, P-1-(2-chloro-5-methoxy-3′-(trifluoromethyl)-[1,1′-biphenyl]-4-yl)-2-oxo-N-(pyridazin-3-yl)-1,2,7,8-tetrahydro-1,6-naphthyridine-6(5H)-sulfonamide]"
269 nM,25.4 nM,64.8 nM,"COc1cc(-c2cc(F)cc(Cl)c2)c(F)cc1-n1c2c(ccc1=O)CN(S(=O)(=O)Nc1ccnc(C)n1)CC2 (single isomer, unassigned) [Example 6-P, P-1-(3′-chloro-2,5′-difluoro-5-methoxy-4-biphenylyl)-N-(2-methyl-4-pyrimidinyl)-2-oxo-1,5,7,8-tetrahydro-1,6-naphthyridine-6(2H)-sulfonamide]"
39.9 nM,4.3 nM,6.9 nM,"COc1cc(-c2cc(F)cc(Cl)c2)c(F)cc1-n1c2c(ccc1=O)CN(S(=O)(=O)Nc1ccon1)CC2 (racemic) [Example 18-(Rac), (Rac)-1-(3′-chloro-2,5′-difluoro-5-methoxy-4-biphenylyl)-N-3-isoxazolyl-2-oxo-1,5,7,8-tetrahydro-1,6-naphthyridine-6(2H)-sulfonamide]"
